# Values quoted from earlier work, collected in patent US10755801B2, “Identifying peptides having T-cell-exposed motifs with known frequency of occurrence in a reference database” (IOGENETICS, LLC, priority 2014, dated 2020).
# Ends that are not written are not given here.
# Test system: CD8+ responses, HLA A 0201 restricted
# Conditions: MART-1 peptides, A*0201, melanoma patients; Kawakami
sequence,measurement,value
GIGILTVIL,CD8+ T-cell response,stimulated a response
